# Data: patent EP0350948B1, “Porphyrin derivatives” (TOYOHAKKA KOGYO KABUSHIKI KAISHA, priority 1988, dated 1990)
# Tests used:
# [1] = system: nitrosoamine-induced pancreatic cancer; assay: in vivo hemorrhagic necrosis effect; set-up: species or system hamsters; key to Hemorrhagic necrosis effect: four scales of G4, G3, G2 and G1; four scales of G4, G3, G2 and G1; four scales of G4, G3, G2 and G1; four scales of G4, G3, G2 and G1; conditions: for Hemorrhagic necrosis effect: intensity of hemorrhagic necrosis at 24 hours following i.v. administration, and pathological study
# Procedure: Cancer bearing hamsters of Experiment 1 were i.v. administered the test substance C6-Ga-DP-diAsp (10) (10 mg/ml) which had been diluted with phosphate buffer at 25 mg/kg bodyweight and 12.5 mg/kg bodyweight respectively. The animals were exsanguinated and autopsied at 24 hours after administration, and observed.
# The evaluation was based on the four scales of G4, G3, G2 and G1.
# [2] = system: nitrosoamine-induced pancreatic cancer; assay: laser irradiation to the extirpated organ (excited fluorescent spectrum, N2-PLS measurement), tumor to tissue ratio; type: in vivo, Golden hamsters; conditions: i.v. 25 mg/kg bodyweight, organs extirpated at 24 hours after administration
# Procedure: Golden hamsters (males, 5 per group, bodyweight approximately 150 g) were implanted subcutaneously tumor cells of the nitrosoamine-induced pancreatic cancer. After 14 to 21 days following implantation, animals were intravenously (i.v.) administered the test substance EG-Ga-DP-diGly (10 mg/ml) which had been diluted with phosphate buffer at 25 mg/kg bodyweight. At 24 hours after administration, the organs including the tumor were extirpated, irradiated with N2-pulsed laser (N2, 337 nm, 2 ns, 400 - 1000 nm), and measured of excited fluorescent spectrum. The wavelengths of 600 - 900 nm were studied using the peak wavelength of NADH at 470 nm as a reference. (N2-PLS measurement). […] (Tumor to tissue ratio).
# Excited fluorescent spectra of the organs extirpated at 24 hours after administration were measured, and the peak wavelength at 600 - 900 nm was calculated by setting the peak wavelength at 470 nm as the reference 1. As fluorescence in Mn, Fe and Cu complexes is not sufficiently intense as to enable N2-PLS measurement, the extraction method was applied to these compounds. At 24 hours following administration, the organs were extracted with an organic solvent (such as chloroform-methanol) via acetone powder, and the obtained extract was measured of UV or HPLC to calculate the tumor to tissue ratio.
SMILES,Hemorrhagic necrosis effect [1],other results
"CC(C)=CCC/C(C)=C/COC(C)C1=C(C)C2=Cc3c(C(C)OC/C=C(\C)CCC=C(C)C)c(C)c4[n]3[Mn][n]3c(c(C)c(CCC(=O)NC(CC(=O)O)C(=O)O)c3=CC3=NC(=C4)C(C)=C3CCC(=O)NC(CC(=O)O)C(=O)O)=CC1=N2 (centres unmarked) [(42) C10(Gera)-Mn-DP-diAsp, 2,4-bis(1-geranyloxyethyl)-Mn-deuteroporphynyl diaspartic acid]",G3,photograph of cancer masses (Fig. 3) ([1]; 24 hours after administration): hemorrhagic necrosis
"CC1=C(CCC(=O)NC(CC(=O)O)C(=O)O)C2=NC1=Cc1c(C)c(C(C)OCc3cccnc3)c3[n]1[Mn][n]1c(c(C)c(CCC(=O)NC(CC(=O)O)C(=O)O)c1=C2)=CC1=NC(=C3)C(C)=C1C(C)OCc1cccnc1 (centres unmarked) [(57) Nct-Mn-DP-diAsp, 2,4-bis(1-nicotynyloxyethyl)-Mn-deuteroporphynyl diaspartic acid]",G2,
"CCCCCOC(C)C1=C(C)C2=Cc3c(C(C)OCCCCC)c(C)c4[n]3[Ga][n]3c(c(C)c(CCC(=O)NC(CC(=O)O)C(=O)O)c3=CC3=NC(=C4)C(C)=C3CCC(=O)NC(CC(=O)O)C(=O)O)=CC1=N2 (centres unmarked) [(9) C5-Ga-DP-diAsp, 2,4-bis(1-pentyloxyethyl)-Ga-deuteroporphynyl diaspartic acid]",G4,"photograph of a cancer mass (Fig. 1) ([1]; 24 hours after administration, Cn-Ga-DP-diAsp, n = odd numbers): hemorrhagic necrosis; tumor/tissue cancer/ kidney [2]: 6.58; tumor/tissue cancer/ liver [2]: 4.07; tumor/tissue cancer/ lung [2]: 3.89; tumor/tissue cancer/ serum [2]: 0.89"
"CCCCCCCCOC(C)C1=C(C)C2=Cc3c(C(C)OCCCCCCCC)c(C)c4[n]3[Mn][n]3c(c(C)c(CCC(=O)NC(CC(=O)O)C(=O)O)c3=CC3=NC(=C4)C(C)=C3CCC(=O)NC(CC(=O)O)C(=O)O)=CC1=N2 (centres unmarked) [(36) C8-Mn-DP-diAsp, 2,4-bis(1-octyloxyethyl)-Mn-deuteroporphynyl diaspartic acid]",G3,
"CCCCCCCCCCCCOC(C)C1=C(C)C2=Cc3c(C(C)OCCCCCCCCCCCC)c(C)c4[n]3[Fe][n]3c(c(C)c(CCC(=O)NC(CC(=O)O)C(=O)O)c3=CC3=NC(=C4)C(C)=C3CCC(=O)NC(CC(=O)O)C(=O)O)=CC1=N2 (centres unmarked) [(64) C12-Fe-DP-diAsp, 2,4-bis(1-dodecyloxyethyl)-Fe-deuteroporphynyl diaspartic acid]",G3,
"CCCCCCCCCCOC(C)C1=C(C)C2=Cc3c(C(C)OCCCCCCCCCC)c(C)c4[n]3[Mn][n]3c(c(C)c(CCC(=O)NC(CC(C)C)C(=O)NC(CC(=O)O)C(=O)O)c3=CC3=NC(=C4)C(C)=C3CCC(=O)NC(CC(C)C)C(=O)NC(CC(=O)O)C(=O)O)=CC1=N2 (centres unmarked) [(40) C10-Mn-DP-diLeu-diAsp, 2,4-bis(1-decyloxyethyl)-Mn-deuteroporphynyl dileucyldiaspartic acid]",G2,
"C=CC1=C(C)C2=Cc3c(C(C)OCCCCCCCCCCCC)c(C)c4[n]3[Mn][n]3c(c(C)c(CCC(=O)NC(CC(=O)O)C(=O)O)c3=CC3=NC(=C4)C(C)=C3CCC(=O)NC(CC(=O)O)C(=O)O)=CC1=N2 (centres unmarked) [(49) C12(mono)-Mn-DP-diAsp, 2-(1-dodecyloxyethyl)-4-ethenyl-Mn-deuteroporphynyl diaspartic acid]",G2,
"C=CC1=C(C)C2=Cc3c(C(C)OCCC(C)CCCC(C)C)c(C)c4[n]3[Mn][n]3c(c(C)c(CCC(=O)NC(CC(=O)O)C(=O)O)c3=CC3=NC(=C4)C(C)=C3CCC(=O)NC(CC(=O)O)C(=O)O)=CC1=N2 (centres unmarked) [(45) C10(H2Citro,mono)-Mn-DP-diAsp, 2-(1-dihydrocitronellyloxyethyl)-4-ethenyl-Mn-deuteroporphynyl diaspartic acid]",G2,
"CCCCCCCCCCCCOC(C)C1=C(C)c2cc3[nH]c(cc4nc(cc5[nH]c(cc1n2)c(C)c5C(C)OCCCCCCCCCCCC)C(C)=C4CCC(=O)NC(CC(=O)O)C(=O)O)c(CCC(=O)NC(CC(=O)O)C(=O)O)c3C.[Co] (centres unmarked) [(67) C12-Co-DP-diAsp, 2,4-bis(1-dodecyloxyethyl)-Co-deuteroporphynyl diaspartic acid]",G1,
"CC(C)=CCCC(C)CCOC(C)C1=C(C)C2=Cc3c(C(C)OCCC(C)CCC=C(C)C)c(C)c4[n]3[Mn][n]3c(c(C)c(CCC(=O)NC(CC(=O)O)C(=O)O)c3=CC3=NC(=C4)C(C)=C3CCC(=O)NC(CC(=O)O)C(=O)O)=CC1=N2 (centres unmarked) [(43) C10(Citro)-Mn-DP-diAsp, 2,4-bis(1-citronellyloxyethyl)-Mn-deuteroporphynyl diaspartic acid]",G3,
"CCCCCCCCOC(C)C1=C(C)C2=Cc3c(C(C)OCCCCCCCC)c(C)c4[n]3[Fe][n]3c(c(C)c(CCC(=O)NC(CC(=O)O)C(=O)O)c3=CC3=NC(=C4)C(C)=C3CCC(=O)NC(CC(=O)O)C(=O)O)=CC1=N2 (centres unmarked) [(62) C8-Fe-DP-diAsp, 2,4-bis(1-octyloxyethyl)-Fe-deuteroporphynyl diaspartic acid]",G3,photograph of cancer masses (Fig. 3) ([1]; 24 hours after administration): hemorrhagic necrosis
"CC1=C(CCC(=O)NC(CC(=O)O)C(=O)O)C2=NC1=Cc1c(C)c(C(C)OCCO)c3[n]1[Ga][n]1c(c(C)c(CCC(=O)NC(CC(=O)O)C(=O)O)c1=C2)=CC1=NC(=C3)C(C)=C1C(C)OCCO (centres unmarked) [(3) EG-Ga-DP-diAsp, 2,4-bis[1-(2-hydroxyethyloxy)ethyl]-Ga-deuteroporphynyl diaspartic acid]",,tumor/tissue cancer/ kidney [2]: 3.45; tumor/tissue cancer/ liver [2]: 3.00; tumor/tissue cancer/ lung [2]: 2.87
"CCCCCCCCCCOC(C)C1=C(C)C2=Cc3c(C(C)OCCCCCCCCCC)c(C)c4[n]3[Mn][n]3c(c(C)c(CCC(=O)NCC(=O)NC(CC(=O)O)C(=O)O)c3=CC3=NC(=C4)C(C)=C3CCC(=O)NCC(=O)NC(CC(=O)O)C(=O)O)=CC1=N2 (centres unmarked) [(39) C10-Mn-DP-diGly-diAsp, 2,4-bis(1-decyloxyethyl)-Mn-deuteroporphynyl diglycyldiaspartic acid]",G2,
"CCCCCCCCCCOC(C)C1=C(C)C2=Cc3c(C(C)OCCCCCCCCCC)c(C)c4[n]3[Mn][n]3c(c(C)c(CCC(=O)NC(Cc5ccccc5)C(=O)NC(CC(=O)O)C(=O)O)c3=CC3=NC(=C4)C(C)=C3CCC(=O)NC(Cc3ccccc3)C(=O)NC(CC(=O)O)C(=O)O)=CC1=N2 (centres unmarked) [(41) C10-Mn-DP-diPhe-diAsp, 2,4-bis(1-decyloxyethyl)-Mn-deuteroporphynyl diphenylalanyldiaspartic acid]",G2,
"CCCCCCCCCCCCCCOC(C)C1=C(C)C2=Cc3c(C(C)OCCCCCCCCCCCCCC)c(C)c4[n]3[Mn][n]3c(c(C)c(CCC(=O)NC(CC(=O)O)C(=O)O)c3=CC3=NC(=C4)C(C)=C3CCC(=O)NC(CC(=O)O)C(=O)O)=CC1=N2 (centres unmarked) [(51) C14-Mn-DP-diAsp, 2,4-bis(1-tetradecyloxyethyl)-Mn-deuteroporphynyl diaspartic acid]",G3,
"CC1=C(CCC(=O)NC(CC(=O)O)C(=O)O)c2cc3[nH]c(cc4nc(cc5[nH]c(cc1n2)c(C(C)OCCC(C)CCCC(C)C)c5C)C(C(C)OCCC(C)CCCC(C)C)=C4C)c(C)c3CCC(=O)NC(CC(=O)O)C(=O)O.[Mn] (centres unmarked) [(44) C10(H2Citro)-Mn-DP-diAsp, 2,4-bis(1-dihydrocitronellyloxyethyl)-Mn-deuteroporphynyl diaspartic acid]",G4,
"CC1=C(CCC(=O)NC(CC(=O)O)C(=O)O)c2cc3[nH]c(cc4nc(cc5[nH]c(cc1n2)c(C(C)OCC1CCCO1)c5C)C(C(C)OCC1CCCO1)=C4C)c(C)c3CCC(=O)NC(CC(=O)O)C(=O)O.[Mn] (centres unmarked) [(55) H4Fran-Mn-DP-diAsp, 2,4-bis(1-tetrahydrofurfuryloxyethyl)-Mn-deuteroporphynyl diaspartic acid]",G2,
"CCCCCCCCCCOC(C)C1=C(C)C2=Cc3c(C(C)OCCCCCCCCCC)c(C)c4[n]3[Co][n]3c(c(C)c(CCC(=O)NC(CC(=O)O)C(=O)O)c3=CC3=NC(=C4)C(C)=C3CCC(=O)NC(CC(=O)O)C(=O)O)=CC1=N2 (centres unmarked) [(66) C10-Co-DP-diAsp, 2,4-bis(1-decyloxyethyl)-Co-deuteroporphynyl diaspartic acid]",G1,
"CCCCCCCCCCCCOC(C)C1=C(C)C2=Cc3c(C(C)OCCCCCCCCCCCC)c(C)c4[n]3[Cu][n]3c(c(C)c(CCC(=O)NC(CC(=O)O)C(=O)O)c3=CC3=NC(=C4)C(C)=C3CCC(=O)NC(CC(=O)O)C(=O)O)=CC1=N2 (centres unmarked) [(70) C12-Cu-DP-diAsp, 2,4-bis(1-dodecyloxyethyl)-Cu-deuteroporphynyl diaspartic acid]",G1,
"CCCCCCCCCCCCOC(C)C1=C(C)C2=Cc3c(C(C)OCCCCCCCCCCCC)c(C)c4[n]3[Zn][n]3c(c(C)c(CCC(=O)NC(CC(=O)O)C(=O)O)c3=CC3=NC(=C4)C(C)=C3CCC(=O)NC(CC(=O)O)C(=O)O)=CC1=N2 (centres unmarked) [(73) C12-Zn-DP-diAsp, 2,4-bis(1-dodecyloxyethyl)-Zn-deuteroporphynyl diaspartic acid]",G2,
